According to patent US20040039053A1, “Use of(-) (3-halomethylphenoxy) (4-halophenyl) acetic acid derivatives for treatment of insulin resistance, type 2 diabetes, hyperlipidemia and hyperuricemia” (priority 2000, published 2004):

Columns and labels:
C57BL/6J ob/ob mice = assay: Glucose lowering activity of halofenate analogs in ob/ob mice (Example 12); assay type: in vivo; conditions: for Predose Glucose: baseline before dosing
[1] = Plasma hydrolysis of (−) CPTA prodrug esters in human plasma (Example 21); assay type: in vitro ADME; conditions: human plasma (heparinized, pooled), 125 or 250 μM, 37° C., hydrolysis to (−) CPTA; read-out: Plasma T1/2 (converted)
Experimental: This example illustrates the plasma hydrolysis of various prodrug esters of the (S)-enantiomer of CPTA at physiological conditions. Hydrolysis was monitored and analyzed by HPLC. The hydrolytic product was identified by comparison to authentic (−) CPTA and the hydrolytic rates were calculated. [drawing 83]
Human plasma (heparinized, pooled) was obtained from Golden West Biololgicals Inc., USA; Plasma incubation was carried out in a Water Bath Shaker (New Brunswick Scientific, Inc.); Sample analyses were carried out on Agilent HPLC 1100 system.
Prepare 31.25 or 62.5 mM prodrug stock solutions in 100% DMSO. Add 4 μL of 31.25 or 62.5 mM prodrug stock solutions to 1.0 mL of plasma in a microcentrifuge tube to make plasma concentration at 125 or 250 μM, mix gently. Aliquots of 50 μL are transferred to 15 microcentrifuge vials. Three samples are immediately removed to a freezer at about −80° C. (0 time point), the remaining samples are incubated in a bath shaker at 37° C. Three samples are removed at 30 min, 2, 7 and 24 hr, and stored at −80° C. until analysis. The relative concentrations of MBX-compounds are determined by HPLC methods. If there are enough data points, the hydrolytic rate can be calculated using WinNonlin software. Table 10 provides a summary of plasma half-lives of some pro-drug esters and FIGS. 20A-20G illustrate the hydrolytic curves of those prodrug esters.

CYP2C19 = CYP2C19 (Homo sapiens, UniProt P33261); assay: Cytochrome P450 isoform inhibition in human hepatic microsomes, S-mephenytoin (Example 18); assay type: in vitro ADME; conditions: both sexes, human, pooled human hepatic microsomes, probe S-mephenytoin 50 μM; positive control 10 μM
CYP2C9 = CYP2C9 (Homo sapiens, UniProt P11712)
Chain of CYP2C9 (P11712 whole entry): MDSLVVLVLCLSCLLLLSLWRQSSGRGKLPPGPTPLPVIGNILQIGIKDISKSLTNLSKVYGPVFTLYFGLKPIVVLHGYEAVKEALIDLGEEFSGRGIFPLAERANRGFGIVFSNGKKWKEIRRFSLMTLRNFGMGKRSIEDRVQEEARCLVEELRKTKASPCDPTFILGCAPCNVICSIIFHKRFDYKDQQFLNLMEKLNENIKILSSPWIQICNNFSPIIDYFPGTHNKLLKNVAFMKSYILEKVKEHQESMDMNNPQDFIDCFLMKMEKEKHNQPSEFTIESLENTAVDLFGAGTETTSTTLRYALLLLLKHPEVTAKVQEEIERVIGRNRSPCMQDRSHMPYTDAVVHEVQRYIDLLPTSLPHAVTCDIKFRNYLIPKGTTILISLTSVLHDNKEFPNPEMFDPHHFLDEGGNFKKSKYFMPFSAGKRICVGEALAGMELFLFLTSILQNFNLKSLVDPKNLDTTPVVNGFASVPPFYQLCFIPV

Chain of CYP2C19 (P33261 whole entry, canonical isoform): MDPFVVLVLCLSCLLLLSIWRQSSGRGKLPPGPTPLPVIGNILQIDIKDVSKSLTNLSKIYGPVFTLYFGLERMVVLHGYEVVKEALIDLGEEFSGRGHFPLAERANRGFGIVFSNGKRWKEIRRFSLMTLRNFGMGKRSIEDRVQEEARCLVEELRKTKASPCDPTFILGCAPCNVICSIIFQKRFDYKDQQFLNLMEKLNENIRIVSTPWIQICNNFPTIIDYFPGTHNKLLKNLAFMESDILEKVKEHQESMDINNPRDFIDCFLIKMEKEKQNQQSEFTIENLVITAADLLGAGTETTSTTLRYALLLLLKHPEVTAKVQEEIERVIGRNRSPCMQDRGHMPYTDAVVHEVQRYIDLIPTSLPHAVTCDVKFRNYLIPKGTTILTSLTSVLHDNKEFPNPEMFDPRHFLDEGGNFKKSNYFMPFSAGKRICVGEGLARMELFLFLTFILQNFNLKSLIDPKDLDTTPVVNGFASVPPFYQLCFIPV

CC(=O)NCCOC(=O)C(Oc1cccc(C(F)(F)F)c1)c1ccc(F)cc1 (racemic) [(±)Analog 14]
6 hours Glucose (C57BL/6J ob/ob mice; 125 mg/kg oral once a day): 328.9 ± 34.1 mg/dL
30 hours Glucose (C57BL/6J ob/ob mice; 125 mg/kg oral once a day): 267.0 ± 21.3 mg/dL
54 hours Glucose (C57BL/6J ob/ob mice; 125 mg/kg oral once a day): 293.0 ± 29.4 mg/dL
Predose Glucose (C57BL/6J ob/ob mice; 125 mg/kg group): 361.0 ± 17.1 mg/dL

CC(=O)NCCOC(=O)C(Oc1cccc(C(F)(F)F)c1)c1ccc(Br)cc1 (racemic) [(±)Analog 29]
6 hours Glucose (C57BL/6J ob/ob mice; 125 mg/kg oral once a day): 299.7 ± 24.5 mg/dL
30 hours Glucose (C57BL/6J ob/ob mice; 125 mg/kg oral once a day): 237.4 ± 14.9 mg/dL
54 hours Glucose (C57BL/6J ob/ob mice; 125 mg/kg oral once a day): 293.3 ± 9.7 mg/dL
Predose Glucose (C57BL/6J ob/ob mice; 125 mg/kg group): 387.1 ± 16.0 mg/dL

CCCCOC(=O)C(Oc1cccc(C(F)(F)F)c1)c1ccc(Cl)cc1 (racemic) [(±)Analog 33]
6 hours Glucose (C57BL/6J ob/ob mice; 125 mg/kg oral once a day): 227.5 ± 13.2 mg/dL
30 hours Glucose (C57BL/6J ob/ob mice; 125 mg/kg oral once a day): 298.0 ± 15.3 mg/dL
54 hours Glucose (C57BL/6J ob/ob mice; 125 mg/kg oral once a day): 286.6 ± 9.9 mg/dL
Predose Glucose (C57BL/6J ob/ob mice; 125 mg/kg group): 292.0 ± 19.1 mg/dL

O=C(NCCOC(=O)C(Oc1cccc(C(F)(F)F)c1)c1ccc(Cl)cc1)c1ccccc1 (racemic) [(±)Analog 36]
6 hours Glucose (C57BL/6J ob/ob mice; 125 mg/kg oral once a day): 300.5 ± 27.3 mg/dL
30 hours Glucose (C57BL/6J ob/ob mice; 125 mg/kg oral once a day): 249.7 ± 8.6 mg/dL
54 hours Glucose (C57BL/6J ob/ob mice; 125 mg/kg oral once a day): 272.2 ± 18.4 mg/dL
Predose Glucose (C57BL/6J ob/ob mice; 125 mg/kg group): 329.7 ± 17.6 mg/dL

NC(=O)COC(=O)C(Oc1cccc(C(F)(F)F)c1)c1ccc(Cl)cc1 (racemic) [(±)Analog 37]
6 hours Glucose (C57BL/6J ob/ob mice; 125 mg/kg oral once a day): 345.4 ± 19.7 mg/dL
30 hours Glucose (C57BL/6J ob/ob mice; 125 mg/kg oral once a day): 312.5 ± 21.7 mg/dL
54 hours Glucose (C57BL/6J ob/ob mice; 125 mg/kg oral once a day): 285.1 ± 14.7 mg/dL
time points with significantly lowered plasma glucose (C57BL/6J ob/ob mice; 125 mg/kg oral once a day): 54 h
Predose Glucose (C57BL/6J ob/ob mice; 125 mg/kg group): 387.4 ± 18.8 mg/dL

CN(C)C(=O)COC(=O)C(Oc1cccc(C(F)(F)F)c1)c1ccc(Cl)cc1 (racemic) [(±)Analog 38]
6 hours Glucose (C57BL/6J ob/ob mice; 125 mg/kg oral once a day): 303.2 ± 18.2 mg/dL
30 hours Glucose (C57BL/6J ob/ob mice; 125 mg/kg oral once a day): 245.6 ± 15.6 mg/dL
54 hours Glucose (C57BL/6J ob/ob mice; 125 mg/kg oral once a day): 243.1 ± 10.6 mg/dL
Predose Glucose (C57BL/6J ob/ob mice; 125 mg/kg group): 329.4 ± 18.9 mg/dL

C=CCOC(=O)C(Oc1cccc(C(F)(F)F)c1)c1ccc(Cl)cc1 (single isomer, unassigned) [Compound 19.1]
half-life [1]: 5.5 h

O=C(NCCOC(=O)C(Oc1cccc(C(F)(F)F)c1)c1ccc(Cl)cc1)c1cccs1 (single isomer, unassigned) [Compound 19.2]
half-life [1]: < 1 h

O=C(NCCOC(=O)C(Oc1cccc(C(F)(F)F)c1)c1ccc(Cl)cc1)c1ccccc1 (single isomer, unassigned) [Compound 19.4]
half-life [1]: < 1 h

O=C(OCC(=O)N1CCOCC1)C(Oc1cccc(C(F)(F)F)c1)c1ccc(Cl)cc1 (single isomer, unassigned) [Compound 19.5]
half-life [1]: < 0.5 h

CCOC(=O)C(Oc1cccc(C(F)(F)F)c1)c1ccc(Cl)cc1 (single isomer, unassigned) [Compound 19.7]
half-life [1]: < 7 h

CS(=O)(=O)NCCOC(=O)C(Oc1cccc(C(F)(F)F)c1)c1ccc(Cl)cc1 (single isomer, unassigned) [Compound 19.10]
half-life [1]: < 1 h

CN(C)C(=O)COC(=O)C(Oc1cccc(C(F)(F)F)c1)c1ccc(Cl)cc1 (single isomer, unassigned) [Compound 19.11]
half-life [1]: < 0.5 h

CCOC(=O)COC(=O)C(Oc1cccc(C(F)(F)F)c1)c1ccc(Cl)cc1 (single isomer, unassigned) [Compound 19.12]
half-life [1]: < 0.5 h

O=C(OCC(=O)N1CCC1)C(Oc1cccc(C(F)(F)F)c1)c1ccc(Cl)cc1 (single isomer, unassigned) [Compound 19.13]
half-life [1]: < 0.5 h

O=C(OCCO)C(Oc1cccc(C(F)(F)F)c1)c1ccc(Cl)cc1 (single isomer, unassigned) [Compound 19.14]
half-life [1]: < 2 h

CC(C)C(=O)NCCOC(=O)C(Oc1cccc(C(F)(F)F)c1)c1ccc(Cl)cc1 (single isomer, unassigned) [Compound 19.15]
half-life [1]: < 1 h

NC(=O)C1CCCN1C(=O)COC(=O)C(Oc1cccc(C(F)(F)F)c1)c1ccc(Cl)cc1 (single isomer, unassigned) [Compound 19.16]
half-life [1]: < 0.5 h

COCC(=O)NCCOC(=O)C(Oc1cccc(C(F)(F)F)c1)c1ccc(Cl)cc1 (single isomer, unassigned) [Compound 19.17]
half-life [1]: < 1 h

O=C(OCc1cccnc1)C(Oc1cccc(C(F)(F)F)c1)c1ccc(Cl)cc1 (single isomer, unassigned) [Compound 19.18]
half-life [1]: < 1 h

COC(=O)C1CCCN1C(=O)COC(=O)C(Oc1cccc(C(F)(F)F)c1)c1ccc(Cl)cc1 (single isomer, unassigned) [Compound 19.19]
half-life [1]: < 0.5 h

O=C(NCCOC(=O)C(Oc1cccc(C(F)(F)F)c1)c1ccc(Cl)cc1)c1cccnc1 (single isomer, unassigned) [Compound 19.20]
half-life [1]: < 0.5 h

O=C(NCCOC(=O)C(Oc1cccc(C(F)(F)F)c1)c1ccc(Cl)cc1)OCc1ccccc1 (single isomer, unassigned) [Compound 19.21]
half-life [1]: < 2 h

CCNC(=O)NCCOC(=O)C(Oc1cccc(C(F)(F)F)c1)c1ccc(Cl)cc1 (single isomer, unassigned) [Compound 19.22]
half-life [1]: < 1 h

CC(=O)OCCOC(=O)C(Oc1cccc(C(F)(F)F)c1)c1ccc(Cl)cc1 (single isomer, unassigned) [Compound 19.23]
half-life [1]: < 1 h

Cc1oc(=O)oc1COC(=O)C(Oc1cccc(C(F)(F)F)c1)c1ccc(Cl)cc1 (single isomer, unassigned) [Compound 19.24]
half-life [1]: < 0.5 h

O=C(Oc1ccccc1)C(Oc1cccc(C(F)(F)F)c1)c1ccc(Cl)cc1 (single isomer, unassigned) [Compound 19.25]
half-life [1]: < 0.5 h

O=C(NCCOC(=O)C(Oc1cccc(C(F)(F)F)c1)c1ccc(Cl)cc1)c1ccncc1 (single isomer, unassigned) [Compound 19.26]
half-life [1]: < 1 h

NCC(=O)OCCOC(=O)C(Oc1cccc(C(F)(F)F)c1)c1ccc(Cl)cc1 (single isomer, unassigned) [Compound 19.28]
half-life [1]: < 0.5 h

CC(=O)NCCOC(=O)C(Oc1cccc(C(F)(F)F)c1)c1ccc(Br)cc1 (single isomer, unassigned; (-)) [(−)Analog 29]
Predose Glucose (C57BL/6J ob/ob mice; 150 mg/kg group): 372.2 ± 17.1 mg/dL
6 hours Glucose (C57BL/6J ob/ob mice; single oral dose 150 mg/kg): 333.5 ± 16.1 mg/dL
time points with significantly reduced plasma glucose (C57BL/6J ob/ob mice; single oral dose 150 mg/kg): 6 h

O=C(NCCOC(=O)C(Oc1cccc(C(F)(F)F)c1)c1ccc(Cl)cc1)c1ccccc1 (single isomer, unassigned; (-)) [(−)Analog 36]
Predose Glucose (C57BL/6J ob/ob mice; 150 mg/kg group): 373.2 ± 15.5 mg/dL
6 hours Glucose (C57BL/6J ob/ob mice; single oral dose 150 mg/kg): 281.1 ± 18.2 mg/dL
time points with significantly reduced plasma glucose (C57BL/6J ob/ob mice; single oral dose 150 mg/kg): 6 h

NC(=O)COC(=O)C(Oc1cccc(C(F)(F)F)c1)c1ccc(Cl)cc1 (single isomer, unassigned; (-)) [(−)Analog 37]
Predose Glucose (C57BL/6J ob/ob mice; 150 mg/kg group): 373.4 ± 16.1 mg/dL
6 hours Glucose (C57BL/6J ob/ob mice; single oral dose 150 mg/kg): 271.7 ± 22.5 mg/dL
time points with significantly reduced plasma glucose (C57BL/6J ob/ob mice; single oral dose 150 mg/kg): 6 h

CN(C)C(=O)COC(=O)C(Oc1cccc(C(F)(F)F)c1)c1ccc(Cl)cc1 (single isomer, unassigned; (-)) [(−)Analog 38]
Predose Glucose (C57BL/6J ob/ob mice; 150 mg/kg group): 373.4 ± 16.1 mg/dL
6 hours Glucose (C57BL/6J ob/ob mice; single oral dose 150 mg/kg): 251.2 ± 23.6 mg/dL
time points with significantly reduced plasma glucose (C57BL/6J ob/ob mice; single oral dose 150 mg/kg): 6 h

C#CCOC(=O)C(Oc1cccc(C(F)(F)F)c1)c1ccc(Cl)cc1 (single isomer, unassigned; (-)) [Compound 19.3, (−)-propargyl 4-chloro-alpha-(3-trifluoromethylphenoxy)benzeneacetate]
half-life [1]: < 1 h

O=C(OCc1ccccc1)C(Oc1cccc(C(F)(F)F)c1)c1ccc(Cl)cc1 (single isomer, unassigned; (-)) [Compound 19.6, (−)-benzyl 4-chloro-alpha-(3-trifluoromethylphenoxy)benzeneacetate]
half-life [1]: 6.3 h

COCCOC(=O)C(Oc1cccc(C(F)(F)F)c1)c1ccc(Cl)cc1 (single isomer, unassigned; (-)) [Compound 19.8, (−)-2-methoxyethyl 4-chloro-alpha-(3-trifluoromethylphenoxy)benzeneacetate]
half-life [1]: < 2 h

CCOC(=O)NCCOC(=O)C(Oc1cccc(C(F)(F)F)c1)c1ccc(Cl)cc1 (single isomer, unassigned; (-)) [Compound 19.9, (−)-2-ethoxycarbonylaminoethyl 4-chloro-alpha-(3-trifluoromethylphenoxy)benzeneacetate]
half-life [1]: < 1 h

CC(OC(=O)OC1CCCCC1)OC(=O)C(Oc1cccc(C(F)(F)F)c1)c1ccc(Cl)cc1 (single isomer, unassigned; (-)) [Compound 19.27, (−)-1-(cyclohexyloxycarbonyloxy)ethyl 4-chloro-alpha-(3-trifluoromethylphenoxy)benzeneacetate]
half-life [1]: < 1 h

COc1ccc2[nH]c([S+]([O-])Cc3ncc(C)c(OC)c3C)nc2c1 (stereo not shown) [OMP, omeprazole, reference compound]
inhibition at 30 min, 10 μM (CYP2C19): 50%

Nc1ccc(S(=O)(=O)Nc2ccnn2-c2ccccc2)cc1 [SFZ, sulfaphenazole, reference compound]
Tolbutamide 4-OH TB Production (CYP2C9): BQL
